Measurements: PubChem BioAssay (NCI)
Values joined by “and” are separate entries in the source; they are usually repeats but may differ in a detail not shown here. Identical values can stand only once.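 Cells were grown in 96-well plates and exposed to each compound for 48 hours at five concentrations; endpoints were interpolated linearly between bracketing concentrations, or set to the highest concentration if not reached. GI50 = concentration required for 50% inhibition of growth. TGI is the concentration that stops growth completely.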

What was measured:
Assay in all cases: NCI anticancer screen, dose series, 48 h
EKVX NSCLC = test system: EKVX NSCLC
SNB-75 CNS = test system: SNB-75 CNS
U251 CNS = test system: U251 CNS
MOLT-4 leukemia = test system: MOLT-4 leukemia
PC-3 prostate = test system: PC-3 prostate
HL-60(TB) leukemia = test system: HL-60(TB) leukemia
OVCAR-5 ovarian = test system: OVCAR-5 ovarian
CCRF-CEM leukemia = test system: CCRF-CEM leukemia
KM12 colon = test system: KM12 colon
HOP-62 NSCLC = test system: HOP-62 NSCLC

Row | SMILES | TGI (EKVX NSCLC) | TGI (SNB-75 CNS) | TGI (U251 CNS) | TGI (MOLT-4 leukemia) | TGI (PC-3 prostate) | TGI (HL-60(TB) leukemia) | TGI (OVCAR-5 ovarian) | TGI (CCRF-CEM leukemia) | TGI (KM12 colon) | GI50 (EKVX NSCLC) | GI50 (SNB-75 CNS) | GI50 (U251 CNS) | GI50 (MOLT-4 leukemia) | GI50 (PC-3 prostate) | GI50 (HL-60(TB) leukemia) | GI50 (OVCAR-5 ovarian) | GI50 (CCRF-CEM leukemia) | GI50 (KM12 colon) | GI50 (HOP-62 NSCLC) | TGI (HOP-62 NSCLC)
1 | COc1cc2oc3c(c(=O)c2c(O)c1/C=C/C(C)C)C(C=C(C)C)Oc1cc(O)ccc1-3 (stereo not given) | 30.3 µM | 29.4 µM | 31.1 µM | 25.8 µM | 29.4 µM | 56.1 µM | 31.1 µM | 30.4 µM | 34.5 µM |  |  |  |  |  |  |  |  |  |  | 
2 | CN1CCN(c2nc(-c3csc(-c4cccs4)n3)cc3ccccc23)CC1 | 3.34 µM | 2.91 µM | 3.29 µM | 4.15 µM | 4.48 µM | 4.71 µM | 3.13 µM | 4.46 µM | 3.39 µM | 1.58 µM | 1.36 µM | 1.66 µM | 2.03 µM | 1.98 µM | 2.17 µM | 1.66 µM | 2 µM | 1.84 µM | 1.81 µM | 3.67 µM
3 | O=C1N(Cc2ccccc2Cl)c2ccccc2C12NN=C(c1cccc(Cl)c1)S2 (stereo not given) | 3.08 µM | 2.84 µM | 3.15 µM | 4.64 µM | 3.45 µM | 6.32 µM | 3.76 µM | 4.93 µM | 3.79 µM | 1.69 µM | 1.47 µM | 1.77 µM | 2.04 µM | 1.74 µM | 2.49 µM | 1.88 µM | 1.86 µM | 1.82 µM | 1.55 µM | 2.89 µM
4 | CCc1nc(N)nc(N)c1-c1ccc(Cl)c(N=[N+]=[N-])c1 | > 100 µM and 99.8 µM | > 87.3 µM | > 100 µM | 26.8 µM and 71.1 µM | > 100 µM |  | > 100 µM | 31.9 µM and > 71.9 µM | 73.1 µM and > 100 µM |  |  |  | 2.82 µM and 6.62 µM | 12.6 µM and 2.06 µM | 0.4 µM and 2.14 µM |  | 0.898 µM and 3.89 µM |  |  | > 59.8 µM and 62.8 µM
5 | NC(=O)c1sc(-n2cnc3cc(C(F)(F)F)ccc32)cc1OCc1ccccc1Br | > 25 µM | > 18.8 µM | > 25 µM | > 25 µM | > 25 µM | > 25 µM | > 25 µM | > 25 µM | > 25 µM | > 25 µM | 8.72 µM | > 15.8 µM | > 25 µM | > 20.4 µM | > 25 µM | > 25 µM | > 19.2 µM | > 19.9 µM | 6.49 µM | > 16.9 µM
6 | CCCCCCNCc1cc(C(C)(C)C)cc(CNCCCCCC)c1O | 2.96 µM | 2.92 µM | 2.91 µM | 3.84 µM | 2.9 µM | 3.33 µM | 2.88 µM | 4.26 µM | 3.3 µM | 1.55 µM | 1.44 µM | 1.57 µM | 1.84 µM | 1.53 µM | 1.68 µM | 1.54 µM | 1.69 µM | 1.82 µM | 1.58 µM | 2.93 µM
7 | O=[N+]([O-])c1cc2no[n+]([O-])c2cc1N1CCCCC1 | 8.98 µM | 9.8 µM | 20.2 µM | 4.95 µM | 5.68 µM | 5.29 µM | 24.8 µM | > 100 µM | 30.5 µM |  |  |  |  |  |  |  |  |  |  | 31.3 µM
8 | CCCCOC1OC(COC(=O)C(C)C)C(OC(=O)C(C)C)C(O)C1OC1OC(C)C(OC(=O)CCC)C(OC(=O)C(C)C)C1O (stereo not given) | 25.2 µM | 31.4 µM | 26.4 µM | 4.12 µM | 20.7 µM | 42.9 µM | 25.2 µM | 24.1 µM | 29 µM | 12.5 µM | 17.6 µM | 13.6 µM | 1.71 µM | 8.35 µM | 18.1 µM | 12.7 µM | 10.8 µM | 15.1 µM | 14.3 µM | 27.4 µM
9 | Cc1ccc(C2NC(=O)c3ccccc3N2)c(C)c1 (stereo not given) | > 100 µM | 6.8 µM | > 39.5 µM | > 100 µM | > 40.2 µM | 1.61 µM | > 86.5 µM | > 100 µM | > 100 µM |  |  |  |  |  |  |  |  |  |  | > 100 µM
10 | N#CC(C#N)=C/C=C(\Sc1ccc(F)cc1Cl)c1ccc(Cl)cc1 | 26.9 µM | 31 µM | 1.69 µM | > 100 µM | 10.4 µM | 49.2 µM | 2.61 µM |  | 2.79 µM | 8.42 µM | 10.3 µM | 0.414 µM | 0.194 µM | 1.42 µM | 0.52 µM | 0.605 µM | 0.107 µM | 0.714 µM | 0.904 µM | 3.42 µM
11 | COc1ccc2c(c1)-c1nn(CCCN(C)C)c3ccc([N+](=O)[O-])c(c13)N2 | 4.22 µM and 9.84 µM | 1.02 µM and 3.85 µM | 4.94 µM and 14.7 µM |  | 2.75 µM and 3.93 µM | 1.82 µM and 9.36 µM | 3.46 µM and 9.7 µM | 6.45 µM and 8.72 µM | 2.54 µM and 2.58 µM | 0.393 µM and 1 µM | 0.197 µM and 0.573 µM | 0.178 µM and 0.502 µM |  | 0.112 µM and 0.343 µM | 0.468 µM and 2.9 µM | 0.356 µM and 1.35 µM | 0.0825 µM and 0.624 µM | 0.194 µM and 0.43 µM | 0.104 µM and 0.686 µM | 1.06 µM and 5.26 µM
12 | CCCCNc1ccc(Nc2ccccc2)cc1 | > 100 µM | 61.9 µM | > 100 µM | 25.9 µM | 38.2 µM | 5.35 µM | > 100 µM | > 100 µM | 32.6 µM | 3.53 µM | 8.46 µM | 3.89 µM | 3.23 µM | 3.15 µM | 2.05 µM | 29 µM | 2.93 µM | 4.02 µM | 14.4 µM | 71.4 µM
13 | COc1ccc(-c2c3c(nc4n[nH]c(-c5ccc(Cl)cc5)c24)-c2ccccc2C(=O)C3=O)cc1 | 4.43 µM | 2.76 µM | 2.81 µM | 14.9 µM | 3.71 µM | 28.1 µM | 4.79 µM | > 100 µM | 3.16 µM | 1.64 µM | 1.19 µM | 1.46 µM | 2.44 µM | 1.22 µM | 3.08 µM | 2.15 µM | 2.55 µM | 1.62 µM | 1.56 µM | 2.96 µM
14 | CN(CCC(=O)/C(=C\c1ccccc1)c1ccc(Cl)cc1)Cc1ccccc1 | 18.8 µM | 31.8 µM | 4.35 µM | 6.88 µM | 9.49 µM | 34.5 µM | 10.4 µM | 6.91 µM | 11 µM | 5.37 µM | 10.2 µM | 1.9 µM | 1.49 µM | 2.93 µM | 5.95 µM | 3.53 µM | 1.44 µM | 3.07 µM | 2.87 µM | 7.46 µM
15 | O=C(CCCN1CCC(C(O)c2ccc(F)cc2)CC1)c1ccc(F)cc1 (stereo not given) | 136 µM | 98.5 µM | 106 µM | 142 µM | 99.6 µM | 120 µM | 116 µM | 228 µM | 116 µM |  |  |  |  |  |  |  |  |  |  | 125 µM
16 | O=C(CC1C=Cc2ccccc2N1C(=O)c1ccccc1)c1ccccc1 (stereo not given) | 47.4 µM | > 100 µM | 65.1 µM | 34.6 µM | 96.6 µM | 43.4 µM | > 100 µM | > 100 µM | 61.8 µM |  |  |  |  |  |  |  |  |  |  | > 100 µM
17 | Cc1ccc(-n2nnnc2-c2cnc(N3CCOCC3)nc2-c2cccc(C(F)(F)F)c2)cc1 | > 50 µM | 3.98 µM | > 10.6 µM | > 10.4 µM | 3.93 µM | 17.5 µM | > 43.1 µM | 2.55 µM | 3.59 µM | 3.93 µM | 1.6 µM | 3.52 µM | 2.18 µM | 1.44 µM | 2.34 µM | 2.6 µM | 1.1 µM | 1.26 µM | 1.44 µM | 4.9 µM
18 | CCC(C)C(=O)OCC(=O)c1ccc(-c2ccccc2)cc1 (stereo not given) | 84.4 µM | > 100 µM | > 100 µM | > 100 µM | > 100 µM | > 100 µM | > 100 µM | > 100 µM | > 100 µM |  |  |  |  |  |  |  |  |  |  | > 100 µM
19 | Cc1cccc2c3c(sc12)C(c1ccc(F)cc1)C(C#N)=C(N)O3 (stereo not given) | 17.6 µM | 0.0936 µM | 12.6 µM | 26.6 µM | 11.3 µM | 0.731 µM | 12.8 µM | > 59.7 µM | 11.1 µM | 0.141 µM | 0.0236 µM | 0.13 µM | 0.137 µM | 0.045 µM | 0.0389 µM | 0.325 µM | 0.0439 µM | 0.064 µM | 0.127 µM | 12.9 µM
20 | CN(C)c1ccc(/C=N/S(=O)(=O)c2ccc(-n3c(-c4ccccc4)nc4c(Br)cc(Br)cc4c3=O)cc2)cc1 | 91.6 µM | 71.3 µM | > 100 µM | > 80.5 µM | > 88 µM | 84.2 µM | > 100 µM | > 100 µM | > 100 µM | 27.6 µM | 24.7 µM | 40.7 µM | 33.3 µM | 35.3 µM | 34.4 µM | > 69.5 µM | 3.22 µM | 32.3 µM | 47.7 µM | > 100 µM
21 | CCOc1ccc2c(c1)c(CC(=O)O)cn2C | > 100 µM |  | > 100 µM | > 100 µM | > 100 µM | > 100 µM |  | > 100 µM | > 100 µM |  |  |  |  |  |  |  |  |  |  | > 100 µM
22 | CCN1C(=NCCO)NS(=O)(=O)c2ccccc21 | > 100 µM |  | > 100 µM | > 100 µM | > 100 µM | > 100 µM | > 100 µM | > 100 µM | > 100 µM |  |  |  |  |  |  |  |  |  |  | > 100 µM
23 | CN(C)c1cccc(F)c1C(=O)NC(=O)Nc1ccc(Cl)cc1 | > 100 µM | 9.12 µM | > 100 µM | > 100 µM | > 100 µM | 18.1 µM | > 100 µM |  | > 100 µM |  |  |  |  |  |  |  |  |  |  | > 100 µM
